Values of other authors in US8273721B2, “Combination treatment for bladder cancer” (Endo Pharmaceuticals Solutions Inc., priority 2008, dated 2012).

## O=C(OC1CC2CCC(C1)[N+]21CCCC1)C(O)(c1ccccc1)c1ccccc1.[Cl-] (stereo not drawn) [trospium chloride, spiro[8-azoniabicyclo[3,2,1]octane-8,1′pyrrolidinium]-3-[(hydroxydiphenyl-acetyl)-oxy]chloride(1α, 3β, 5α)(9Cl)]
water
  solubility in water: approximately 1 g/2 mL

## (2S-cis)-2-[1,2,3,4,6,11-hexahydro-2,5,12-trihydroxy-7-methoxy-6,11-dioxo-4-[[2,3,6-trideoxy-3-[(trifluoroacetyl)amino]-α-L-lyxo-hexopyranosyl]oxyl]-2-naphthacenyl]-2-oxoethyl pentanoate [Valrubicin]
Methylene chloride, ethanol, methanol and acetone
  solubility in organic solvents (in words): soluble
water
  solubility in water (in words): relatively insoluble
